Test results as given in the NIST ThermoML archive (doi:10.1021/je0202073).

Legend:
[1] = xn = mol fraction of the nth substance listed; details: 101.3 kPa, Liquid
[2] = excess molar enthalpy (molar enthalpy of mixing); xn = mol fraction of the nth substance listed; details: 101.3 kPa, Liquid, Calvet calorimetry

CC(C)(C)O [2-methylpropan-2-ol] + CCOC(C)=O
Details	excess molar enthalpy [kcal/mol]	excess molar volume [m3/mol]
[1], 303.15 K, x2 = 0.0458	–	1.14e-06
[1], 303.15 K, x2 = 0.0972	–	2.65e-06
[1], 303.15 K, x2 = 0.1702	–	4.43e-06
[1], 303.15 K, x2 = 0.1982	–	4.99e-06
[1], 303.15 K, x2 = 0.2483	–	5.78e-06
[1], 303.15 K, x2 = 0.2718	–	6.12e-06
[1], 303.15 K, x2 = 0.3074	–	6.6e-06
[1], 303.15 K, x2 = 0.3613	–	7.08e-06
[1], 303.15 K, x2 = 0.3973	–	7.3e-06
[1], 303.15 K, x2 = 0.4626	–	7.52e-06
[1], 303.15 K, x2 = 0.5178	–	7.55e-06
[1], 303.15 K, x2 = 0.5274	–	7.54e-06
[1], 303.15 K, x2 = 0.5449	–	7.51e-06
[1], 303.15 K, x2 = 0.5624	–	7.48e-06
[1], 303.15 K, x2 = 0.5722	–	7.42e-06
[1], 303.15 K, x2 = 0.5885	–	7.35e-06
[1], 303.15 K, x2 = 0.5998	–	7.3e-06
[1], 303.15 K, x2 = 0.6022	–	7.27e-06
[1], 303.15 K, x2 = 0.6086	–	7.2e-06
[1], 303.15 K, x2 = 0.6124	–	7.17e-06
[1], 303.15 K, x2 = 0.6336	–	7.06e-06
[1], 303.15 K, x2 = 0.6501	–	6.87e-06
[1], 303.15 K, x2 = 0.7084	–	6.24e-06
[1], 303.15 K, x2 = 0.7732	–	5.29e-06
[1], 303.15 K, x2 = 0.8111	–	4.6e-06
[1], 303.15 K, x2 = 0.8533	–	3.72e-06
[1], 303.15 K, x2 = 0.8915	–	2.84e-06
[1], 303.15 K, x2 = 0.9686	–	8.6e-07
[1], 318.15 K, x2 = 0.0796	–	2.37e-06
[1], 318.15 K, x2 = 0.1377	–	3.7e-06
[1], 318.15 K, x2 = 0.1899	–	4.83e-06
[1], 318.15 K, x2 = 0.2558	–	6.14e-06
[1], 318.15 K, x2 = 0.2985	–	6.84e-06
[1], 318.15 K, x2 = 0.3703	–	7.44e-06
[1], 318.15 K, x2 = 0.4344	–	7.86e-06
[1], 318.15 K, x2 = 0.4633	–	7.93e-06
[1], 318.15 K, x2 = 0.5377	–	7.95e-06
[1], 318.15 K, x2 = 0.5626	–	7.87e-06
[1], 318.15 K, x2 = 0.6284	–	7.55e-06
[1], 318.15 K, x2 = 0.6913	–	7e-06
[1], 318.15 K, x2 = 0.767	–	5.96e-06
[1], 318.15 K, x2 = 0.8516	–	4.18e-06
[1], 318.15 K, x2 = 0.8891	–	3.61e-06
[1], 318.15 K, x2 = 0.9294	–	2.37e-06
[2], 299.15 K, x2 = 0.0546	0.0899	–
[2], 299.15 K, x2 = 0.1163	0.178	–
[2], 299.15 K, x2 = 0.181	0.263	–
[2], 299.15 K, x2 = 0.2456	0.332	–
[2], 299.15 K, x2 = 0.3079	0.385	–
[2], 299.15 K, x2 = 0.3672	0.422	–
[2], 299.15 K, x2 = 0.4207	0.445	–
[2], 299.15 K, x2 = 0.4707	0.459	–
[2], 299.15 K, x2 = 0.5157	0.464	–
[2], 299.15 K, x2 = 0.5541	0.462	–
[2], 299.15 K, x2 = 0.564	0.46	–
[2], 299.15 K, x2 = 0.6199	0.444	–
[2], 299.15 K, x2 = 0.68	0.413	–
[2], 299.15 K, x2 = 0.7438	0.365	–
[2], 299.15 K, x2 = 0.8091	0.299	–
[2], 299.15 K, x2 = 0.8769	0.212	–
[2], 299.15 K, x2 = 0.9385	0.117	–
[2], 318.15 K, x2 = 0.0538	0.0799	–
[2], 318.15 K, x2 = 0.1146	0.164	–
[2], 318.15 K, x2 = 0.1733	0.24	–
[2], 318.15 K, x2 = 0.2313	0.307	–
[2], 318.15 K, x2 = 0.2953	0.361	–
[2], 318.15 K, x2 = 0.3487	0.396	–
[2], 318.15 K, x2 = 0.3987	0.422	–
[2], 318.15 K, x2 = 0.4461	0.438	–
[2], 318.15 K, x2 = 0.4878	0.445	–
[2], 318.15 K, x2 = 0.5176	0.448	–
[2], 318.15 K, x2 = 0.5676	0.444	–
[2], 318.15 K, x2 = 0.6236	0.429	–
[2], 318.15 K, x2 = 0.6844	0.398	–
[2], 318.15 K, x2 = 0.7436	0.352	–
[2], 318.15 K, x2 = 0.8108	0.285	–
[2], 318.15 K, x2 = 0.8797	0.198	–
[2], 318.15 K, x2 = 0.9442	0.104	–
